Data reported in patent publication US9150510B2, “Amino acid derivative” (NIPPON ZOKI PHARMACEUTICAL CO., LTD., priority 2008, dated 2015).
Structures can show the parent of a compound that is named as a salt.

Legend:
ddY-type mice = assay: Analgesic efficacy test (1): acetic acid writhing test (nociceptive pain model animal); assay type: in vivo; details: Mus musculus, 25 min, writhing number, male ddY mice, acetic acid i.p. 25 min after administration, mean ± standard error, read-out: Percent Suppression (%); for inhibition in vivo at 100 mg/kg: oral single dose 100 mg/kg; for inhibition in vivo at 10 mg/kg: oral single dose 10 mg/kg; for inhibition in vivo at 3 mg/kg: oral single dose 3 mg/kg
Text: A compound of the present invention was orally administered to mice, to carry out an analgesic efficacy test according to acetic acid writhing test (nociceptive pain model animal). As an experimental animal, 4-week old male ddY-type mice were previously bred, and thereafter 8 mice per one group were used in the experiment. A solution or suspension prepared by dissolving or suspending a compound of the present invention in a 0.5% (w/v) aqueous CMC-Na solution was orally administered as a test substance in a single dose. While, to a control group, a 0.5% (w/v) aqueous CMC-Na solution was administered in the same manner. After 25 minutes from administration, the mice were intraperitoneally administered with a 0.7% (v/v) acetic acid/physiological saline at the dose of 10 mL/kg. From 5 minutes thereafter, writhing number in a 10-minute period was counted, and a suppressive rate for each individual (mean±standard error) was calculated by the following formula: […]
In the test for significance difference, Baltlett's test was carried out in the comparison between multiple groups of the group administered with test substance with the control group. In the case of homoscedasticity, Dunnett's multiple comparison test of parametrics, and in the case of heteroscedasticity, Dunnett's multiple comparison test of non-parametrics were used. In addition, in the test of dose dependency, Jockheere-Terpstra's test was used. In all cases, significance difference was considered to be found at P<0.05.

[1] = Test of blood kinetics in the rats; assay type: in vivo; details: rat, plasma, 2 mg/kg, fasted Wistar male rats, oral single dose of mixed solution of five compounds, each compound 2 mg/5 mL/kg, n=5, LC-MS; for AUC(0-inf): read-out: AUC0-∞ (area under the curve for concentration in blood, time 0 to infinite hours); for Cmax: read-out: Cmax (maximum concentration in plasma)
Description: Ten milligrams of a compound of the present invention was properly converted to a sodium salt with the same amount of sodium hydroxide, where necessary, and each was dissolved in 5 mL of water. Five compounds each among these aqueous solutions of the compounds of the present inventions were mixed, to prepare a mixed solution containing 0.4 mg/mL each of each compound. Six-week old Wistar SPF male rats that were fasted were orally administered with the mixed solution in a single dose using a gavage tube (each compound 2 mg/5 mL/kg, n=5). At time points of 0.25, 0.5, 1, 2, 4, and 8 hours after the administration, about 150 μL of blood was collected using a heparin-added capillary tube from veins of rat tails. The capillary tubes were centrifuged to collect the plasma. The plasma sample was deprotenized and the supernatant was diluted to prepare each of measurement sample solutions. The concentration of the compound of the present invention in each of measurement sample solutions was quantified using LC-MS, and Cmax (maximum concentration in plasma) and AUC (area under the curve for concentration in blood, time 0 to infinite (∞) hours) of the compounds of the present invention were calculated.

| AUC(0-inf) [1] [ng·h/mL] | Cmax [1] [ng/mL] | SMILES | inhibition in vivo at 100 mg/kg (ddY-type mice) [%] | inhibition in vivo at 10 mg/kg (ddY-type mice) [%] | other results |
| --- | --- | --- | --- | --- | --- |
| – | – | O=C(C=Cc1ccccc1F)N[C@@H](CO)C(=O)O [Compound 66, N-[3-(2-Fluorophenyl)acryloyl]-L-serine] | 56 ± 6.9 | – | – |
| – | – | NCCCC[C@H](NC(=O)C=Cc1ccccc1F)C(=O)O [Compound 61, N^α-[3-(2-Fluorophenyl)acryloyl]-L-lysine hydrochloride] | 40.5 ± 7.8 | – | – |
| – | – | COc1ccc(C[C@H](NC(=O)C=Cc2ccccc2OC)C(=O)O)cc1 [Compound 48, N-[3-(2-Methoxyphenyl)acryloyl]-O^4-methyl-L-tyrosine] | – | 43.2 ± 7.3 | – |
| – | – | NC(=O)CC[C@H](NC(=O)C=Cc1ccccc1F)C(=O)O [Compound 65, N^α-[3-(2-Fluorophenyl)acryloyl]-L-glutamine] | 31.6 ± 13.1 | – | – |
| 404000 | 53300 | Cn1cc(C[C@H](NC(=O)C=Cc2ccccc2F)C(=O)O)c2ccccc21 [Compound 27, N^α-[3-(2-Fluorophenyl)acryloyl]-1-methyl-L-tryptophan] | – | – | inhibition in vivo at 3 mg/kg (ddY-type mice): 45 ± 10% |
| 13400 | 3600 | Cn1cc(C[C@H](NC(=O)C=Cc2ccccc2C#N)C(=O)O)c2ccccc21 [Compound 30, N^α-[3-(2-Cyanophenyl)acryloyl]-1-methyl-L-tryptophan] | – | 35.8 ± 9.9 | – |
| – | – | COc1ccc(C[C@H](NC(=O)C=Cc2ccc(O)cc2)C(=O)O)cc1 [Compound 44, N-[3-(4-Hydroxyphenyl)acryloyl]-O^4-methyl-L-tyrosine] | – | 48 ± 10.3 | – |
| – | – | O=C(C=Cc1ccc(O)cc1)N[C@@H](Cc1c[nH]c2ccccc12)C(=O)O [Compound 7, N^α-[3-(4-Hydroxyphenyl)acryloyl]-L-tryptophan] | 37.3 ± 11.8 | – | – |
| – | – | Cn1cc(C[C@H](NC(=O)C=Cc2c(F)cccc2F)C(=O)O)c2ccccc21 [Compound 31, N^α-[3-(2,6-Difluorophenyl)acryloyl]-1-methyl-L-tryptophan] | 31.5 ± 9.7 | – | – |
| – | – | COc1ccc(C[C@H](NC(=O)C=Cc2ccccc2C(F)(F)F)C(=O)O)cc1 [Compound 47, O^4-Methyl-N-[3-(2-Trifluoromethylphenyl)acryloyl]-L-Tyrosine] | 36.2 ± 11.2 | – | – |
| – | – | COc1ccc(C[C@H](NC(=O)C=Cc2ccccc2Cl)C(=O)O)cc1 [Compound 49, N-[3-(2-Chlorophenyl)acryloyl]-O^4-methyl-L-tyrosine] | 31.8 ± 7 | – | – |
| 11400 | 2300 | Cn1cc(C[C@H](NC(=O)C=Cc2ccc(C#N)cc2)C(=O)O)c2ccccc21 [Compound 36, N^α-[3-(4-Cyanophenyl)acryloyl]-1-methyl-L-tryptophan] | – | 49.7 ± 11.3 | – |
| – | – | COc1ccc(C[C@H](NC(=O)C=Cc2ccccc2C#N)C(=O)O)cc1 [Compound 46, N-[3-(2-Cyanophenyl)acryloyl]-O^4-methyl-L-tyrosine] | 38.7 ± 11.3 | – | – |
| – | – | COc1ccc(C[C@H](NC(=O)C=Cc2c(F)cccc2F)C(=O)O)cc1 [Compound 50, N-[3-(2,6-Difluorophenyl)acryloyl]-O^4-methyl-L-tyrosine] | 35.1 ± 15.4 | – | – |
| 38200 | 18000 | COc1ccc(C[C@H](NC(=O)C=Cc2cc(F)ccc2F)C(=O)O)cc1 [Compound 52, N-[3-(2,5-Difluorophenyl)acryloyl]-O^4-methyl-L-tyrosine] | – | – | inhibition in vivo at 3 mg/kg (ddY-type mice): 50.9 ± 7.4% |
| – | – | COc1ccc(C[C@H](NC(=O)C=Cc2cccc(C#N)c2)C(=O)O)cc1 [Compound 54, N-[3-(3-Cyanophenyl)acryloyl]-O^4-methyl-L-tyrosine] | 33.3 ± 10 | – | – |
| – | – | COc1ccc(C[C@H](NC(=O)C=Cc2cc(C(F)(F)F)cc(C(F)(F)F)c2)C(=O)O)cc1 [Compound 53, N-{3-[3,5-Bis(trifluoromethyl)phenyl]acryloyl}-O^4-methyl-L-tyrosine] | 32 ± 14.6 | – | – |
| – | – | Cn1cc(C[C@H](NC(=O)C=Cc2ccc(Oc3ccccc3)cc2)C(=O)O)c2ccccc21 [Compound 35, 1-Methyl-N^α-[3-(4-phenoxyphenyl)acryloyl]-L-tryptophan] | 55.2 ± 7.4 | – | – |

| AUC(0-inf) [1] [ng·h/mL] | Cmax [1] [ng/mL] | SMILES | inhibition in vivo at 100 mg/kg (ddY-type mice) [%] | inhibition in vivo at 10 mg/kg (ddY-type mice) [%] | other results |
| --- | --- | --- | --- | --- | --- |
| 16500 | 3200 | Cn1cc(C[C@H](NC(=O)C=Cc2cccc(C#N)c2)C(=O)O)c2ccccc21 [Compound 34, N^α-[3-(3-Cyanophenyl)acryloyl]-1-methyl-L-tryptophan] | – | 45.2 ± 6.3 | – |
| – | – | COc1ccc(C[C@H](NC(=O)C=Cc2cccc(F)c2)C(=O)O)cc1 [Compound 41, N-[3-(3-Fluorophenyl)acryloyl]-O^4-methyl-L-tyrosine] | 47.3 ± 15.7 | – | – |
| 6800 | 1500 | Cn1cc(C[C@H](NC(=O)C(C#N)=Cc2ccccc2F)C(=O)O)c2ccccc21 [Compound 37, N^α-[2-Cyano-3-(2-fluorophenyl)acryloyl]-1-methyl-L-tryptophan] | – | 37.9 ± 7.5 | – |
| – | – | NCCC[C@H](NC(=O)C=Cc1ccccc1F)C(=O)O [Compound 63, N^α-[3-(2-Fluorophenyl)acryloyl]-L-ornithine hydrochloride] | – | 41.1 ± 7.8 | – |
| – | – | COc1ccc(C[C@H](NC(=O)C=Cc2cccc(O)c2)C(=O)O)cc1 [Compound 43, N-[3-(3-Hydroxyphenyl)acryloyl]-O^4-methyl-L-tyrosine] | – | 45.3 ± 10.8 | – |
| 61700 | 48700 | COc1ccc(C[C@H](NC(=O)C=Cc2ccccc2F)C(=O)O)cc1 [Compound 40, N-[3-(2-Fluorophenyl)acryloyl]-O^4-methyl-L-tyrosine] | – | 42.3 ± 7 | – |
| 116000 | 33000 | COc1ccc(C[C@H](NC(=O)C=Cc2ccc(F)cc2F)C(=O)O)cc1 [Compound 51, N-[3-(2,4-Difluorophenyl)acryloyl]-O^4-Methyl-L-Tyrosine] | – | 42.2 ± 9.1 | – |
| – | – | O=Cn1cc(C[C@H](NC(=O)C=Cc2ccccc2F)C(=O)O)c2ccccc21 [Compound 68, N^α-[3-(2-Fluorophenyl)acryloyl]-1-formyl-L-tryptophan] | 55.4 ± 9.9 | – | – |
| 6800 | 1500 | N#CC(=Cc1ccccc1)C(=O)N[C@@H](Cc1c[nH]c2ccccc12)C(=O)O [Compound 25, N^α-(2-Cyano-3-phenylacryloyl)-L-tryptophan] | – | 41.2 ± 11.1 | – |
| 7000 | 3500 | COc1ccc(C[C@H](NC(=O)C=Cc2ccc(C#N)cc2)C(=O)O)cc1 [Compound 56, N-[3-(4-Cyanophenyl)acryloyl]-O^4-methyl-L-tyrosine] | 48.7 ± 10.1 | – | – |
| 148000 | 15000 | O=C(C=Cc1ccccc1F)N[C@H](Cc1c[nH]c2ccccc12)C(=O)O [Compound 24, N^α-[3-(2-Fluorophenyl)acryloyl]-D-tryptophan] | – | 35.8 ± 9.3 | – |
| – | – | Cn1cc(C[C@H](NC(=O)C=Cc2ccccc2O)C(=O)O)c2ccccc21 [Compound 26, N^α-[3-(2-Hydroxyphenyl)acryloyl]-1-methyl-L-tryptophan] | – | 30.5 ± 9.2 | – |
| 183000 | 37700 | Cn1cc(C[C@H](NC(=O)C=Cc2ccc(F)cc2)C(=O)O)c2ccccc21 [Compound 28, N^α-[3-(4-Fluorophenyl)acryloyl]-1-methyl-L-tryptophan] | – | 56.5 ± 5.3 | – |
| 57700 | 18800 | COc1ccc(C[C@H](NC(=O)C=Cc2ccc(F)cc2)C(=O)O)cc1 [Compound 42, N-[3-(4-Fluorophenyl)acryloyl]-O^4-methyl-L-tyrosine] | 52.7 ± 8.3 | – | – |
| – | – | O=C(C=Cc1cccc(O)c1)N[C@@H](Cc1c[nH]c2ccccc12)C(=O)O [Compound 6, N^α-[3-(3-Hydroxyphenyl)acryloyl]-L-tryptophan] | 39.2 ± 15.4 | – | – |
| – | – | O=C(C=Cc1ccccc1Cl)N[C@@H](Cc1c[nH]c2ccccc12)C(=O)O [Compound 12, N^α-[3-(2-Chlorophenyl)acryloyl]-L-tryptophan] | 34.9 ± 11.5 | – | – |
| – | – | O=C(C=Cc1ccccc1F)N[C@@H](Cc1ccc(O)cc1)C(=O)O [Compound 62, N-[3-(2-Fluorophenyl)acryloyl]-L-tyrosine] | – | 39.2 ± 13.5 | – |
